Measurements reported in paper PMC11617484, “A Small Molecule Agonist of Krüppel-Like Factor 15 in Proteinuric Kidney Disease” (Journal of the American Society of Nephrology : JASN, 2024).

Target: T1, inhibitor of nuclear factor kappa-B kinase subunit beta (IKKβ) (Homo sapiens, UniProt O14920)
T1 construct: gene IKBKB
T1 sequence (O14920 1-756): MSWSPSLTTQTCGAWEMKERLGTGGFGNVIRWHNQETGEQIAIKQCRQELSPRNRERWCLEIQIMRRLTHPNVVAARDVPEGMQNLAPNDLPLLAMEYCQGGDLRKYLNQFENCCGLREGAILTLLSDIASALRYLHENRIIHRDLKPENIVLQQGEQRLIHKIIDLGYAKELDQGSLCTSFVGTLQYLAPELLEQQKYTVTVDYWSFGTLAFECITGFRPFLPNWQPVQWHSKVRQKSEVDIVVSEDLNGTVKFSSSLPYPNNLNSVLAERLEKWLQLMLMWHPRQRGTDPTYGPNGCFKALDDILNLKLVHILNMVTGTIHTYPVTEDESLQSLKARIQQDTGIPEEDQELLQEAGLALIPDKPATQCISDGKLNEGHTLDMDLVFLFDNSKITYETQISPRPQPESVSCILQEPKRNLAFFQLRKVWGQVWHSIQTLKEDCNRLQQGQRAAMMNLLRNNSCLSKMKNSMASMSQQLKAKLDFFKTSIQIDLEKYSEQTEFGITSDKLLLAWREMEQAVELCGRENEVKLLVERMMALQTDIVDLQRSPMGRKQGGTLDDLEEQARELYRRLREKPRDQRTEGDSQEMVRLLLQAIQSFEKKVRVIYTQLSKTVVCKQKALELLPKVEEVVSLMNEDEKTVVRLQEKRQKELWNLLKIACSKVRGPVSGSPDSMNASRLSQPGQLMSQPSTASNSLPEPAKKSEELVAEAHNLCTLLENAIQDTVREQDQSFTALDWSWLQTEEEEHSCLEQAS
Assay: IKKβ kinase activity assay (dose response, ATP dependence, M96V gatekeeper resistance); supported by cellular thermal shift assay in human podocytes
Type: biochemical

IC50: 0.163 µM
SMILES: CSc1ccc(NC(=O)Nc2ccc(C)nc2)cc1 [BT503]
